Assays:
CCRF-CEM [1] = assay: (§1) In vitro inhibitory activity against HIV infected T4 lymphocytes (CEM cell line); type: functional, cell-based; settings: Homo sapiens
[2] = Therapeutic index (IC50/EC50) was determined
CCRF-CEM [3] = assay: as §1; type: functional, cell-based, Homo sapiens
CCRF-CEM [4] = assay: Tested for in vitro anti HIV activity against T4 lymphocytes (CEM cell lines) and effective concentration was reported; type: functional, cell-based; settings: Homo sapiens

Compound | EC50 (CCRF-CEM [1]) [µM] | IC50 (CCRF-CEM [3]; Homo sapiens, CCRF-CEM) [µM] | EC50 (CCRF-CEM [4]) [µM] | IC50 (CCRF-CEM [3]; ccrf-cem) [µM] | selectivity ratio [2]
COc1nc(N)c(NC2O[C@H](CO)[C@@H](O)[C@H]2O)c(=O)n1C (some centres undefined) | 64 | > 830 |  |  | > 13
COc1nc2nc(C(O)C(O)CO)cnc2c(=O)n1C (stereo in doubt; 10) |  |  |  | > 890 | 
COc1nc2nc(C(O)C(O)CO)cnc2c(=O)n1C (stereo in doubt; 11) |  |  |  | > 220 | 

More lines, main results first:

EC50 (CCRF-CEM [1]) [µM] | IC50 (CCRF-CEM [3]; Homo sapiens, CCRF-CEM) [µM] | EC50 (CCRF-CEM [4]) [µM] | IC50 (CCRF-CEM [3]; ccrf-cem) [µM] | Compound | selectivity ratio [2]
 | 220 | 140 |  | COc1nc(N)c(NC2O[C@H](CO)[C@H](O)[C@H]2O)c(=O)n1C (some centres undefined) | > 1.6
 | > 580 |  |  | COc1nc(N[C@H]2OC[C@@H](O)[C@H](O)[C@H]2O)c(NC2O[C@@H](CO)[C@@H](O)[C@@H]2O)c(=O)n1C (some centres undefined) | 

Source: ChEMBL document CHEMBL1127210, “Synthesis of 5-glycosylamino pyrimidines. A new class of compounds with potential anti-aids activity” (Bioorg Med Chem Lett, 1993)
